# According to patent publication US6576622B1, “Drug combination for the treatment of viral diseases” (University of Medicine & Dentistry of New Jersey, priority 1995, dated 2003):
# Tests used:
# [1] = system: HIV-gpt; assay: HIV-gpt colony formation after infection of HeLa-T4 cells in the presence of antiretroviral agents; type: cell-based; settings: HeLa-T4; plasmid derived HIV-gpt (COS cells); AZT 10 μM, DDI 50 μM, D4T 50 μM; no drug control 8800
# [2] = system: HIV-IIIB; assay: HIV-IIIB infection of JE6.1 cells refractory to d4T, D4T IC50 with FUdr (RT activity); type: cell-based, HIV-1; settings: Human immunodeficiency virus 1, IIIB, 144 h, concentration of D4T for 50% inhibition of RT activity on day 6, F = uM FUdr
# Method: Table 8. Jurkat JE6.1 cells refractory to the antiviral activity of d4T (D4T bulk, D4TR1, D4TR3) and control JE6.1 cells were infected with HIV-IIIB in the presence of 0.001 uM d4T, 0.01 uM d4T 0.1 uM d4T, 1 uM d4T, 10 uM d4T, 100 uM d4T and 1000 uM d4T in the presence of 0.005 uM FUdr, 0.01 uM FUdr or 0.25 uM FUdr.
# [3] = system: MLV-neo; assay: MLV-neo colony formation in the presence of antiviral agents; type: cell-based, Moloney Leukemia virus
# Method: (§1) Production of recombinant HIV-gpt has been described elsewhere (26). The amphotropic cell line PA317 was transfected with the recombinant murine retrovirus pLXSN (36) and was used as the source of the recombinant MLV-neo virus. Stock preparations of HIV-1IIIB were harvested from H9 cells by the “shake off method” (13). Stock virus infectivity was determined by end-point dilution in MT-2 cells (32). Virus induced cytopathic effect was scored 7 days post-infection and the TCID50 was calculated with the Reed and Muench equation (33).
# (§2) To confirm this high rate of infection in the absence of genetic drug resistance, we used several other recombinant viruses and host cells. […] A high rate of infection of Jurkat cells in the presence of d4T has also been seen.
# (§3) Table 5. HIV-gpt produced in COS cells by transfection with plasmids (plasmid derived) is compared with HIV-gpt produced by, rescue from H9/HIV-gpt cell line after infection with HIV-IIIB and cells infected with MLV-neo.
# (§4) Table 6. Colony formation and persistent resistance after Hela-T4 cell infection with MLV-neo virus in the presence and absence of various antiviral agents.
# [4] = system: recombinant HIV, recombinant MLV, or replication-competent HIV; type: cell-based
# Source text: The presence of a selectable marker gene in the recombinant HIV allowed the isolation of cells infected by the recombinant viruses in the presence of d4T. These cells were characterized by infection with both additional recombinant viruses and by replication-competent viruses.
# as §4
# [5] = system: MLV-LacZ; assay: Infection of Jurkat JE6.1 cell clones with MLV-LacZ in the presence of D4T; type: cell-based
# Source text: Table 7. Infection of Jurkat JE6.1 cell clones sensitive and resistant to D4T.
# ** Bulk=bulk culture; R=resistant clone; C=control clone; JE6.1=parental cell line.
# [6] = system: HIV-LacZ; type: cell-based
# [7] = system: HIV-gpt; assay: HIV-gpt colony formation in the presence of D4T; type: cell-based; settings: for Frequency: with D4T
# Method: as §1, §2, §3
# [8] = system: HIV-gpt; settings: in the presence of TIBO R82150; earlier study (26); cited from earlier work
smiles,measurement,setting,value
"Cc1cn([C@H]2C=C[C@@H](CO)O2)c(=O)[nH]c1=O [D4T, Stavudine]",Number of colonies,[1],50
same,IC50,[2]; D4TBulk cells (refractory to d4T),3 µM
same,IC50,[2]; D4TR1 cells (refractory to d4T),74 µM
same,IC50,[2]; D4TR3 cells (refractory to d4T),2 µM
same,IC50,[2]; JE6.1 control cells,0.02 µM
same,No. of colonies,"[3]; Hela-T4, AZT 10 uM, DDI 50 uM, DDC 10 uM, D4T 50 uM, control 9050",63
same,No. of colonies with D4T,[3]; without D4T 9.2 × 10^4,101
same,cells infected with HIV in the presence of d4T that are readily re-infected in the presence of high concentrations of d4T,[4],~50%
same,No. of persistently resistant colonies,"[4]; Hela-T4, MLV-neo, AZT 10 uM, DDI 50 uM, DDC 10 uM, D4T 50 uM, resistant/tested",23/63
same,isolated cells repeatedly refractory to the antiviral effects of d4T,"[4]; cells infected in the presence of d4T, re-infection at high concentrations of d4T",approximately 37%
same,Frequency,"[4]; frequency of persistently resistant colonies, Hela-T4, MLV-neo",2.5 × 10^−3
same,% cells infected with MLV-LacZ in the presence of D4T relative to absence of D4T,"[5]; JE6.1 parental cell line, 50 uM D4T","− ((−), 20%)"
same,% cells infected with MLV-LacZ in the presence of D4T relative to absence of D4T,"[5]; JE6.1 parental cell line, 100 uM D4T","− ((−), 20%)"
same,% cells infected with MLV-LacZ in the presence of D4T relative to absence of D4T,"[5]; Jurkat Bulk (bulk culture), 50 uM D4T",++ ((++) 41-60%)
same,% cells infected with MLV-LacZ in the presence of D4T relative to absence of D4T,"[5]; Jurkat Bulk (bulk culture), 100 uM D4T",+ ((+) 21-40%)
same,% cells infected with MLV-LacZ in the presence of D4T relative to absence of D4T,"[5]; Jurkat control clone C2, 50 uM D4T","− ((−), 20%)"
same,% cells infected with MLV-LacZ in the presence of D4T relative to absence of D4T,"[5]; Jurkat control clone C2, 100 uM D4T","− ((−), 20%)"
same,% cells infected with MLV-LacZ in the presence of D4T relative to absence of D4T,"[5]; Jurkat control clone C23, 50 uM D4T","− ((−), 20%)"
same,% cells infected with MLV-LacZ in the presence of D4T relative to absence of D4T,"[5]; Jurkat control clone C23, 100 uM D4T","− ((−), 20%)"
same,% cells infected with MLV-LacZ in the presence of D4T relative to absence of D4T,"[5]; Jurkat control clone C26, 50 uM D4T","− ((−), 20%)"
same,% cells infected with MLV-LacZ in the presence of D4T relative to absence of D4T,"[5]; Jurkat control clone C26, 100 uM D4T","− ((−), 20%)"
same,% cells infected with MLV-LacZ in the presence of D4T relative to absence of D4T,"[5]; Jurkat control clone C27, 50 uM D4T","− ((−), 20%)"
same,% cells infected with MLV-LacZ in the presence of D4T relative to absence of D4T,"[5]; Jurkat control clone C27, 100 uM D4T","− ((−), 20%)"
same,% cells infected with MLV-LacZ in the presence of D4T relative to absence of D4T,"[5]; Jurkat resistant clone R1, 50 uM D4T","++++ ((++++), 81-100%)"
same,% cells infected with MLV-LacZ in the presence of D4T relative to absence of D4T,"[5]; Jurkat resistant clone R1, 100 uM D4T","++++ ((++++), 81-100%)"
same,% cells infected with MLV-LacZ in the presence of D4T relative to absence of D4T,"[5]; Jurkat resistant clone R3, 50 uM D4T","+++ ((+++), 61-80%)"
same,% cells infected with MLV-LacZ in the presence of D4T relative to absence of D4T,"[5]; Jurkat resistant clone R3, 100 uM D4T",++ ((++) 41-60%)
same,% cells infected with MLV-LacZ in the presence of D4T relative to absence of D4T,"[5]; Jurkat resistant clone R4, 50 uM D4T","− ((−), 20%)"
same,% cells infected with MLV-LacZ in the presence of D4T relative to absence of D4T,"[5]; Jurkat resistant clone R4, 100 uM D4T","− ((−), 20%)"
same,% cells infected with MLV-LacZ in the presence of D4T relative to absence of D4T,"[5]; Jurkat resistant clone R7, 50 uM D4T","− ((−), 20%)"
same,% cells infected with MLV-LacZ in the presence of D4T relative to absence of D4T,"[5]; Jurkat resistant clone R7, 100 uM D4T","− ((−), 20%)"
same,% cells infected with MLV-LacZ in the presence of D4T relative to absence of D4T,"[5]; Jurkat resistant clone R12, 50 uM D4T","++++ ((++++), 81-100%)"
same,% cells infected with MLV-LacZ in the presence of D4T relative to absence of D4T,"[5]; Jurkat resistant clone R12, 100 uM D4T","++++ ((++++), 81-100%)"
same,% cells infected with MLV-LacZ in the presence of D4T relative to absence of D4T,"[5]; Jurkat resistant clone R14, 50 uM D4T",+ ((+) 21-40%)
same,% cells infected with MLV-LacZ in the presence of D4T relative to absence of D4T,"[5]; Jurkat resistant clone R14, 100 uM D4T","− ((−), 20%)"
same,% cells infected with MLV-LacZ in the presence of D4T relative to absence of D4T,"[5]; Jurkat resistant clone R15, 50 uM D4T","++++ ((++++), 81-100%)"
same,% cells infected with MLV-LacZ in the presence of D4T relative to absence of D4T,"[5]; Jurkat resistant clone R15, 100 uM D4T","++++ ((++++), 81-100%)"
same,% cells infected with MLV-LacZ in the presence of D4T relative to absence of D4T,"[5]; Jurkat resistant clone R16, 50 uM D4T",+ ((+) 21-40%)
same,% cells infected with MLV-LacZ in the presence of D4T relative to absence of D4T,"[5]; Jurkat resistant clone R16, 100 uM D4T","− ((−), 20%)"
same,% cells infected with MLV-LacZ in the presence of D4T relative to absence of D4T,"[5]; Jurkat resistant clone R19, 50 uM D4T","− ((−), 20%)"
same,% cells infected with MLV-LacZ in the presence of D4T relative to absence of D4T,"[5]; Jurkat resistant clone R19, 100 uM D4T","− ((−), 20%)"
same,% cells infected with MLV-LacZ in the presence of D4T relative to absence of D4T,"[5]; Jurkat resistant clone R20, 50 uM D4T","++++ ((++++), 81-100%)"
same,% cells infected with MLV-LacZ in the presence of D4T relative to absence of D4T,"[5]; Jurkat resistant clone R20, 100 uM D4T","+++ ((+++), 61-80%)"
same,% cells infected with MLV-LacZ in the presence of D4T relative to absence of D4T,"[5]; Jurkat resistant clone R21, 50 uM D4T","++++ ((++++), 81-100%)"
same,% cells infected with MLV-LacZ in the presence of D4T relative to absence of D4T,"[5]; Jurkat resistant clone R21, 100 uM D4T","++++ ((++++), 81-100%)"
same,% cells infected with MLV-LacZ in the presence of D4T relative to absence of D4T,"[5]; Jurkat resistant clone R22, 50 uM D4T",++ ((++) 41-60%)
same,% cells infected with MLV-LacZ in the presence of D4T relative to absence of D4T,"[5]; Jurkat resistant clone R22, 100 uM D4T",+ ((+) 21-40%)
same,% cells infected with MLV-LacZ in the presence of D4T relative to absence of D4T,"[5]; Jurkat resistant clone R26, 50 uM D4T",+ ((+) 21-40%)
same,% cells infected with MLV-LacZ in the presence of D4T relative to absence of D4T,"[5]; Jurkat resistant clone R26, 100 uM D4T","− ((−), 20%)"
same,% cells infected with MLV-LacZ in the presence of D4T relative to absence of D4T,"[5]; Jurkat resistant clone R29, 50 uM D4T","− ((−), 20%)"
same,% cells infected with MLV-LacZ in the presence of D4T relative to absence of D4T,"[5]; Jurkat resistant clone R29, 100 uM D4T","− ((−), 20%)"
same,% cells infected with MLV-LacZ in the presence of D4T relative to absence of D4T,"[5]; Jurkat resistant clone R33, 50 uM D4T","+++ ((+++), 61-80%)"
same,% cells infected with MLV-LacZ in the presence of D4T relative to absence of D4T,"[5]; Jurkat resistant clone R33, 100 uM D4T",+ ((+) 21-40%)
same,% cells infected with MLV-LacZ in the presence of D4T relative to absence of D4T,"[5]; Jurkat resistant clone R36, 50 uM D4T","++++ ((++++), 81-100%)"
same,% cells infected with MLV-LacZ in the presence of D4T relative to absence of D4T,"[5]; Jurkat resistant clone R36, 100 uM D4T",++ ((++) 41-60%)
same,cross resistance of cell lines “persistently resistant” to AZT to other nucleoside analogs,[6]; d4T at 50 μM,partial cross resistance
same,Frequency,[7]; HIV-gpt by rescue with HIV,1.6 × 10^3
same,No. of colonies with D4T,"[7]; HIV-gpt by rescue with HIV, without D4T 3.4 × 10^4",53
same,Frequency,[7]; plasmid derived HIV-gpt,1.7 × 10^3
same,No. of colonies with D4T,"[7]; plasmid derived HIV-gpt, without D4T 4.7 × 10^4",80
CC(C)=CCN1Cc2cccc3[nH]c(=S)n(c23)C[C@@H]1C [TIBO],Number of colonies,[1],3
same,prevalence of infection with COS-cell derived virus versus HIV-gpt rescued by replication-competent virus,[8],twenty fold lower
same,selection of cells “persistently resistant” to the antiretroviral effects of the drug,"[6]; HeLa-T4, identical techniques as for nucleoside analogs",no cells “persistently resistant”
same,Number of “persistently resistance” colonies,"[6]; colonies from HIV-gpt infection of HeLa-T4 in presence of drug, resistant/tested",0/3
same,Frequency,"[6]; frequency of persistently resistant colonies, HeLa-T4, plasmid derived HIV-gpt",0
